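How tested: cells in 96-well plates exposed to compound for 48 hours at five concentrations. GI50 = concentration required for 50% inhibition of growth.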 The source made the active and inactive calls. Cut-off read from the data, not from the text of the source: active = GI50 up to about 1.1 µM and inactive = higher.
Columns and labels:
Experiment in all cases: growth of human tumour cells (NCI), 48 h
SK-OV-3 = test system: SK-OV-3
MCF7 = test system: MCF7
SK-MEL-5 = test system: SK-MEL-5
SF-295 = test system: SF-295
HCT-116 = test system: HCT-116
RPMI-8226 = test system: RPMI-8226
DU-145 = test system: DU-145
IGROV-1 = test system: IGROV-1
EKVX = test system: EKVX
NCI/ADR-RES = test system: NCI/ADR-RES
OVCAR-5 = test system: OVCAR-5
TK-10 = test system: TK-10
K562 = test system: K562
Hs-578T = test system: Hs-578T
OVCAR-8 = test system: OVCAR-8
NCI-H226 = test system: NCI-H226
CCRF-CEM = test system: CCRF-CEM
SR = test system: SR
SW-620 = test system: SW-620
HCC 2998 = test system: HCC 2998
CAKI-1 = test system: CAKI-1
HOP-92 = test system: HOP-92
HL-60 = test system: HL-60
M14 = test system: M14
NCI-H522 = test system: NCI-H522
SK-MEL-2 = test system: SK-MEL-2
ACHN = test system: ACHN
KM12 = test system: KM12
COLO 205 = test system: COLO 205
OVCAR-3 = test system: OVCAR-3
BT-549 = test system: BT-549
SNB-19 = test system: SNB-19
PC-3 = test system: PC-3
MDA-MB-435 = test system: MDA-MB-435
UACC-257 = test system: UACC-257
MDA-MB-231 = test system: MDA-MB-231
HT-29 = test system: HT-29
SN12C = test system: SN12C
OVCAR-4 = test system: OVCAR-4
HCT-15 = test system: HCT-15
SNB-75 = test system: SNB-75
SF-268 = test system: SF-268
NCI-H23 = test system: NCI-H23
A498 = test system: A498
RXF 393 = test system: RXF 393
MDA-N = test system: MDA-N
UACC-62 = test system: UACC-62
NCI-H460 = test system: NCI-H460
HOP-62 = test system: HOP-62
LOX IMVI = test system: LOX IMVI
786-0 = test system: 786-0
T47D = test system: T47D
SF-539 = test system: SF-539
UO-31 = test system: UO-31
MOLT-4 = test system: MOLT-4
U-251 = test system: U-251
A549 = test system: A549
SK-MEL-28 = test system: SK-MEL-28
Malme-3M = test system: Malme-3M

SMILES: CC(=O)O[C@H]1C(=O)[C@@]2(C)[C@H]([C@H](OC(=O)c3ccccc3)[C@]3(O)C[C@H](OC(=O)[C@H](OC(=O)OCCC(O)CO)[C@@H](NC(=O)c4ccccc4)c4ccccc4)C(C)=C1C3(C)C)[C@]1(OC(C)=O)CO[C@@H]1C[C@@H]2O (some centres not stated)
- GI50 (SK-OV-3): 0.0104 µM (active)
- GI50 (MCF7): < 0.01 µM (active)
- GI50 (SK-MEL-5): < 0.01 µM (active)
- GI50 (SF-295): 0.0192 µM (active)
- GI50 (HCT-116): < 0.01 µM (active)
- GI50 (RPMI-8226): < 0.01 µM (active)
- GI50 (DU-145): < 0.01 µM (active)
- GI50 (IGROV-1): < 0.01 µM (active)
- GI50 (EKVX): 0.037 µM (active)
- GI50 (NCI/ADR-RES): 3.56 µM (inactive)
- GI50 (OVCAR-5): < 0.016 µM (active)
- GI50 (TK-10): 0.998 µM (active)
- GI50 (K562): < 0.01 µM (active)
- GI50 (Hs-578T): < 0.01 µM (active)
- GI50 (OVCAR-8): < 0.0221 µM (active)
- GI50 (NCI-H226): < 0.01 µM (active)
- GI50 (CCRF-CEM): < 0.01 µM (active)
- GI50 (SR): < 0.01 µM (active)
- GI50 (SW-620): < 0.01 µM (active)
- GI50 (HCC 2998): < 0.01 µM (active)
- GI50 (CAKI-1): 0.631 µM (active)
- GI50 (HOP-92): 12.8 µM (inactive)
- GI50 (HL-60): < 0.01 µM (active)
- GI50 (M14): < 0.01 µM (active)
- GI50 (NCI-H522): < 0.01 µM (active)
- GI50 (SK-MEL-2): 29 µM (inactive)
- GI50 (ACHN): 1.09 µM (active)
- GI50 (KM12): < 0.01 µM (active)
- GI50 (COLO 205): < 0.01 µM (active)
- GI50 (OVCAR-3): < 0.01 µM (active)
- GI50 (BT-549): < 0.0159 µM (active)
- GI50 (SNB-19): < 0.01 µM (active)
- GI50 (PC-3): < 0.0128 µM (active)
- GI50 (MDA-MB-435): < 0.01 µM (active)
- GI50 (UACC-257): < 0.01 µM (active)
- GI50 (MDA-MB-231): < 0.0135 µM (active)
- GI50 (HT-29): < 0.01 µM (active)
- GI50 (SN12C): < 0.01 µM (active)
- GI50 (OVCAR-4): 17.4 µM (inactive)
- GI50 (HCT-15): 0.303 µM
- GI50 (SNB-75): < 0.0114 µM (active)
- GI50 (SF-268): < 0.0111 µM (active)
- GI50 (NCI-H23): < 0.01 µM (active)
- GI50 (A498): 0.141 µM (active)
- GI50 (RXF 393): < 0.037 µM (active)
- GI50 (MDA-N): < 0.01 µM (active)
- GI50 (UACC-62): < 0.01 µM (active)
- GI50 (NCI-H460): < 0.01 µM (active)
- GI50 (HOP-62): < 0.01 µM (active)
- GI50 (LOX IMVI): < 0.01 µM (active)
- GI50 (786-0): 0.0105 µM (active)
- GI50 (T47D): < 0.01 µM (active)
- GI50 (SF-539): < 0.01 µM (active)
- GI50 (UO-31): 0.989 µM (active)
- GI50 (MOLT-4): < 0.0109 µM (active)
- GI50 (U-251): < 0.01 µM (active)
- GI50 (A549): < 0.0103 µM (active)

SMILES: COc1nc2c(c(=O)n1C)NC(C(O)C(O)CO)C=N2 (configuration not stated)
- GI50 (SK-OV-3): > 10 µM (inactive)
- GI50 (MCF7): > 10 µM (inactive)
- GI50 (SK-MEL-5): > 10 µM (inactive)
- GI50 (SF-295): > 10 µM (inactive)
- GI50 (HCT-116): > 10 µM (inactive)
- GI50 (RPMI-8226): > 10 µM (inactive)
- GI50 (DU-145): > 10 µM (inactive)
- GI50 (IGROV-1): > 10 µM (inactive)
- GI50 (EKVX): > 10 µM (inactive)
- GI50 (NCI/ADR-RES): > 10 µM (inactive)
- GI50 (OVCAR-5): > 10 µM (inactive)
- GI50 (TK-10): > 10 µM (inactive)
- GI50 (K562): > 10 µM (inactive)
- GI50 (Hs-578T): > 10 µM (inactive)
- GI50 (OVCAR-8): > 10 µM (inactive)
- GI50 (NCI-H226): > 10 µM (inactive)
- GI50 (CCRF-CEM): > 10 µM (inactive)
- GI50 (SR): > 10 µM (inactive)
- GI50 (SW-620): > 10 µM (inactive)
- GI50 (HCC 2998): > 10 µM (inactive)
- GI50 (CAKI-1): > 10 µM (inactive)
- GI50 (HOP-92): > 10 µM (inactive)
- GI50 (HL-60): > 10 µM (inactive)
- GI50 (M14): > 10 µM (inactive)
- GI50 (NCI-H522): > 10 µM (inactive)
- GI50 (SK-MEL-2): > 10 µM (inactive)
- GI50 (ACHN): > 10 µM (inactive)
- GI50 (KM12): > 10 µM (inactive)
- GI50 (COLO 205): > 10 µM (inactive)
- GI50 (SK-MEL-28): > 10 µM (inactive)
- GI50 (OVCAR-3): > 10 µM (inactive)
- GI50 (BT-549): > 10 µM (inactive)
- GI50 (SNB-19): > 10 µM (inactive)
- GI50 (PC-3): > 10 µM (inactive)
- GI50 (MDA-MB-435): > 10 µM (inactive)
- GI50 (UACC-257): > 10 µM (inactive)
- GI50 (MDA-MB-231): > 10 µM (inactive)
- GI50 (HT-29): > 10 µM (inactive)
- GI50 (SN12C): > 10 µM (inactive)
- GI50 (OVCAR-4): > 10 µM (inactive)
- GI50 (HCT-15): > 10 µM
- GI50 (SNB-75): > 10 µM (inactive)
- GI50 (SF-268): > 10 µM (inactive)
- GI50 (NCI-H23): > 10 µM (inactive)
- GI50 (A498): > 10 µM (inactive)
- GI50 (RXF 393): > 10 µM (inactive)
- GI50 (MDA-N): > 10 µM (inactive)
- GI50 (UACC-62): > 10 µM (inactive)
- GI50 (NCI-H460): > 10 µM (inactive)
- GI50 (HOP-62): > 10 µM (inactive)
- GI50 (LOX IMVI): > 10 µM (inactive)
- GI50 (786-0): > 10 µM (inactive)
- GI50 (T47D): > 10 µM (inactive)
- GI50 (SF-539): > 10 µM (inactive)
- GI50 (UO-31): > 10 µM (inactive)
- GI50 (Malme-3M): > 10 µM (inactive)
- GI50 (MOLT-4): > 10 µM (inactive)
- GI50 (U-251): > 10 µM (inactive)
- GI50 (A549): > 10 µM (inactive)

SMILES: CCC(=O)NC(NNS(=O)(=O)c1ccc(C)cc1)(C(F)(F)F)C(F)(F)F
- GI50 (SK-OV-3): 64.3 µM (inactive)
- GI50 (MCF7): 76 µM (inactive)
- GI50 (SK-MEL-5): 50 µM (inactive)
- GI50 (SF-295): > 100 µM (inactive)
- GI50 (HCT-116): 64.3 µM (inactive)
- GI50 (RPMI-8226): 54.3 µM (inactive)
- GI50 (DU-145): > 100 µM (inactive)
- GI50 (IGROV-1): 49.4 µM (inactive)
- GI50 (EKVX): > 100 µM (inactive)
- GI50 (NCI/ADR-RES): 27.3 µM (inactive)
- GI50 (OVCAR-5): > 100 µM (inactive)
- GI50 (TK-10): 54.1 µM (inactive)
- GI50 (K562): 30.6 µM (inactive)
- GI50 (Hs-578T): 34.2 µM (inactive)
- GI50 (OVCAR-8): 44.9 µM (inactive)
- GI50 (NCI-H226): > 100 µM (inactive)
- GI50 (CCRF-CEM): 63.1 µM (inactive)
- GI50 (SR): 39.4 µM (inactive)
- GI50 (SW-620): 33.7 µM (inactive)
- GI50 (HCC 2998): > 10 µM (inactive)
- GI50 (CAKI-1): > 100 µM (inactive)
- GI50 (HOP-92): 37.6 µM (inactive)
- GI50 (HL-60): 46.6 µM (inactive)
- GI50 (M14): 37.6 µM (inactive)
- GI50 (NCI-H522): 30.7 µM (inactive)
- GI50 (SK-MEL-2): > 100 µM (inactive)
- GI50 (ACHN): 49.9 µM (inactive)
- GI50 (KM12): 54.1 µM (inactive)
- GI50 (COLO 205): > 100 µM (inactive)
- GI50 (SK-MEL-28): 20.3 µM (inactive)
- GI50 (OVCAR-3): > 10 µM (inactive)
- GI50 (BT-549): 29.7 µM (inactive)
- GI50 (SNB-19): > 100 µM (inactive)
- GI50 (PC-3): 55.1 µM (inactive)
- GI50 (MDA-MB-435): 18.7 µM (inactive)
- GI50 (UACC-257): 52 µM (inactive)
- GI50 (MDA-MB-231): 30.8 µM (inactive)
- GI50 (HCT-15): 32.1 µM
- GI50 (SNB-75): 51.9 µM (inactive)
- GI50 (SF-268): 55 µM (inactive)
- GI50 (NCI-H23): 48.9 µM (inactive)
- GI50 (A498): > 100 µM (inactive)
- GI50 (RXF 393): 23.2 µM (inactive)
- GI50 (MDA-N): 18.5 µM (inactive)
- GI50 (UACC-62): 38.9 µM (inactive)
- GI50 (NCI-H460): 33.5 µM (inactive)
- GI50 (HOP-62): 65.2 µM (inactive)
- GI50 (LOX IMVI): > 100 µM (inactive)
- GI50 (786-0): > 100 µM (inactive)
- GI50 (T47D): 96.8 µM (inactive)
- GI50 (SF-539): 54 µM (inactive)
- GI50 (UO-31): 34.2 µM (inactive)
- GI50 (Malme-3M): 59.4 µM (inactive)
- GI50 (MOLT-4): 80 µM (inactive)
- GI50 (U-251): > 10 µM (inactive)
- GI50 (A549): 35.7 µM (inactive)
